Columns and labels:
[1] = DTA
[2] = Molar enthalpy of transition or fusion; conditions: DSC
[3] = molar heat capacity at constant pressure; conditions: 101.33 kPa, Small sample (50 mg) DSC

O=C(O)c1cccnc1 [3-carboxylpyridine]
Conditions | Molar enthalpy of transition or fusion, [2] [kcal/mol] | Triple point temperature, [1] [K]
Crystal 1 | 6.74 | 509.91
Crystal 2 | 0.215 | 455

[3]
Conditions | molar heat capacity at constant pressure [J/K/mol]
296.01 K, Crystal 2 | 139.9
298.06 K, Crystal 2 | 141.2
303.2 K, Crystal 2 | 144.2
308.34 K, Crystal 2 | 147
313.48 K, Crystal 2 | 149.4
318.62 K, Crystal 2 | 152.3
323.76 K, Crystal 2 | 154.8
328.9 K, Crystal 2 | 156.5
334.04 K, Crystal 2 | 158.2
339.18 K, Crystal 2 | 159.8
343.24 K, Crystal 2 | 160.4
348.38 K, Crystal 2 | 163.3
353.52 K, Crystal 2 | 165.9
358.66 K, Crystal 2 | 167.9
363.8 K, Crystal 2 | 170
368.94 K, Crystal 2 | 171.5
374.08 K, Crystal 2 | 173.2
379.22 K, Crystal 2 | 175.4
384.37 K, Crystal 2 | 177.6
389.51 K, Crystal 2 | 179.4
394.65 K, Crystal 2 | 181.2
399.79 K, Crystal 2 | 183.5
404.93 K, Crystal 2 | 185.8
410.07 K, Crystal 2 | 189.4
415.21 K, Crystal 2 | 194.3
420.35 K, Crystal 2 | 198
425.49 K, Crystal 2 | 201.7
430.63 K, Crystal 2 | 205.3
435.77 K, Crystal 2 | 212.1
440.91 K, Crystal 2 | 219.1
448.1 K, Crystal 2 | 231.3
449.13 K, Crystal 2 | 240.6
450.16 K, Crystal 2 | 254.7
451.19 K, Crystal 2 | 273.6
452.22 K, Crystal 2 | 292.5
453.24 K, Crystal 2 | 334.7
454.27 K, Crystal 2 | 418.6
455.3 K, Crystal 2 | 440.3
456.33 K, Crystal 1 | 382.6
457.36 K, Crystal 1 | 326.3
458.38 K, Crystal 1 | 297.2
459.41 K, Crystal 1 | 280.2
460.44 K, Crystal 1 | 263.1
461.47 K, Crystal 1 | 251.7
462.5 K, Crystal 1 | 245.7
463.52 K, Crystal 1 | 239.8
464.55 K, Crystal 1 | 235.7
465.58 K, Crystal 1 | 233.6
466.61 K, Crystal 1 | 231.4
467.64 K, Crystal 1 | 229.5
468.66 K, Crystal 1 | 227.8
469.69 K, Crystal 1 | 226.1
479.97 K, Crystal 1 | 231.6
482.03 K, Crystal 1 | 232.2
487.17 K, Crystal 1 | 233.6
492.31 K, Crystal 1 | 235.1
497.45 K, Crystal 1 | 237.2
500.53 K, Crystal 1 | 245.9
503.62 K, Crystal 1 | 254.7
504.65 K, Crystal 1 | 280.5
505.67 K, Crystal 1 | 306.3
506.7 K, Crystal 1 | 422.7
507.73 K, Crystal 1 | 1073.5
508.76 K, Crystal 1 | 7052.2
510.81 K, Liquid | 1773.6
511.84 K, Liquid | 309.8
512.87 K, Liquid | 307.2
515.95 K, Liquid | 307.4
518.01 K, Liquid | 308.6
523.15 K, Liquid | 311.5
528.29 K, Liquid | 314.4
531.37 K, Liquid | 316.2
